One block for each molecule: values may come before it.
Assays:
[1] = tested on: SCC38 cells; assay: Stereospecificity of the mitochondrial labeling, flow cytometry; assay type: cell-based, human; settings: all the selected concentrations, 30 min incubation
Procedure: • Fig. 1. In vivo labeling of SCC38 cells with compound 4 at different concentrations (50, 100 and 500 nM). Scale bar: 10 µm • Fig. 2. Flow cytometry studies in SCC38 and HeLa cell lines labeled with compound 4 and Mito Tracker® Red. Histograms wherein fluorescence intensity vs number of events is represented for each of the staining times (5, 15 and 30 min) and control (Ctrl), for the SCC38 and HeLa cells and for each of the two markers. • Fig. 3. Absorption (A) and fluorescence (B) spectra, normalized to molar absorption and fluorescence quantum yield of probe 4 in different solvents; chloroform (green), acetone (black), acetonitrile (red), ethanol (blue) and water (gray). • Fig. 4. […] (A) Flow cytometry analysis of SCC38 cells incubated in the presence (+FCCP) or absence (-FCCP) of FCCP 60 µM for 3 h before staining with 20 nM of 4 or 0.5 nm of MitoTracker. The data represent the mean fluorescence intensity (MFI) of the stained cells. […] The graphs show the fluorescence profiles of the regions of interest indicated with white lines in the right-hand panels. […] The data represent the mean fluorescence intensity (MFI) of the stained cells (upper panels) and representative images of the cytometry profiles (lower panels). • Fig. 7. […] (B) The data represent the mean fluorescence intensity (MFI) of the labeled cells. […]

[2] = Stability in water: time evolution in D2O followed by 1H NMR (hydrolysis); assay type: physicochemical; settings: 15 mM solution in D2O at 25 °C, read-out: t1/2 (hydrolysis) (converted)
Procedure: One of the critical factors that conditions the viability and applicability of functional dyes 3 and 4 as fluorescent mitochondrial probes is their stability in water, since these compounds contain two potentially labile B-O bonds linking the fluorophore with the carnitine substituent. This stability was determined analyzing the time evolution of 3 and 4 in a 15 mM solution in D2O at 25 °C using ^1H NMR. This technique makes it possible not only to define their stability, but also to identify the possible degradation products (Diagram 2). Both probes are hydrolyzed, generating free carnitine and the corresponding 4,4-dihydroxy-BODIPY derivatives 5 and 6. [drawing 8]
Compound 3 is quickly hydrolyzed (t1/2 = 10 min); however, the greater substitution of the tetramethylated derivative in 4 gives it greater stability (t1/2 = 6 h), which promotes its use as a fluorescent marker in live cells. Contrary to what might be believed, the generation of free carnitine and of the corresponding BODIPY derivatives 5 and 6 at physiological pH is, indeed, an advantage for its application in cell labels. Thus, (R)-carnitine is incorporated into the mitochondrial metabolism, while the boron of the hydrolyzed BODIPY can covalently bond to poly-hydroxilated molecules (for example, saccharides and glycoproteins), generating cyclic boronic esters. […]

[3] = Photophysical characterization: absorption and fluorescence spectra; assay type: physicochemical
Procedure: The photophysical characterization of probes 3 and 4 was carried out analyzing the corresponding absorption and fluorescence spectra in the UV-visible region of the spectrum.
Its photophysical behavior is dependent on the degree of substitution of the BODIPY, since the alkylation of the chromatophore induces sufficient steric hindrance to reduce the free rotation of the 8-mesityl group, a process that entails a significant reduction in fluorescence efficiency. Thus, probe 4 in water stands out for having a high molar absorption coefficient (3.8 × 10^4 M^-1 cm^-1 at 499 nm) and a very efficient fluorescence emission at 511 nm, with a quantum yield of up to 80%.

[4] = tested on: SCC38; assay: Kinetics of cell labeling by flow cytometry; assay type: cell-based, human; settings: SCC38, 50 nM, staining times 5, 15 and 30 min
Procedure: (§1) The cell assays were carried out on two human cell lines: SCC38 and HeLa. The SCC38 line is derived from human laryngeal epidermoid carcinoma patients, while HeLa, the first human cell line established in culture, is derived from cervical cancer. The culture medium used for both cell lines was DMEM (Dulbecco's Modified Eagle's Medium) supplemented with 10% of fetal bovine serum (FBS), 100 U/mL of penicillin, 200 µg/mL of streptomycin, 100 µmol/L of non-essential amino acids and 2 mmol/L of glutamine. The cultures were incubated at 37 °C and 5% of CO2.
(§2) The kinetics of cell labeling with 4 was studied by flow cytometry with the SCC38 and HeLa cell lines, using MitoTracker® Red as a control marker, both at a concentration of 50 nM. The staining times studied were 5, 15, 30 and 45 minutes. After staining, the medium was removed, washed with PBS, trypsinized and the pellet was resuspended in 500 µL of PBS and introduced in the cytometer after filtration. A Beckman Coulter Cytomics FC500 Flow Cytometry Analyzer was used (Scientific-Technical Services, Universidad de Oviedo). Part of the resuspended cells were also plated and observed under the microscope.

[5] = tested on: HeLa; assay: Kinetics of cell labeling by flow cytometry; assay type: cell-based, human; settings: 50 nM, staining times 5, 15 and 30 min
Procedure: as §1, §2

[6] = tested on: SCC38 cells; assay: Inhibition of mitochondrial staining by (R)-palmitoylcarnitine (CACT substrate), flow cytometry; assay type: cell-based, human; settings: co-incubation, probe 50 nm, (R)-palmitoylcarnitine 100, 250 and 500 nM
Procedure: The SCC38 cells were co-incubated with the indicated concentrations of (R)-palmitoylcarnitine and 50 nM of 4 (A) or 50 nM of MitoTracker (B) before analyzing by flow cytometry. The data represent the mean fluorescence intensity (MFI) of the stained cells (upper panels) and representative images of the cytometry profiles (lower panels). • Fig. 7.
To test if CACT was in fact involved in the channeling of 4 to the mitochondrial matrix, we firstly studied the effect of (R)-(+)-palmitoylcarnitine, a natural CACT substrate, in cell labeling by 4.

[7] = tested on: SCC38 cells; assay: Co-localization by co-staining with MitoTracker Red, fluorescence microscopy of live cells; assay type: cell-based, human; settings: co-staining, compound 4 50 nM, MitoTracker® Red 25 nM, 30 minutes
Procedure: as §1
These cell lines were stained with the fluorescent probes synthesized following the following protocol: 30,000-50,000 SCC38 cells were plated on 24-well glass-bottomed plates and cultured to 70% confluence. The culture medium was then removed from the well and washed at least three times with DMEM medium without additives. Next, 1 mL of DMEM and the corresponding fluorescent compound was added to the well. The cells were incubated at 37 °C for 30 minutes, after which the medium was removed and newly washed with DMEM. Lastly, complete medium was added and the cells were observed under the microscope. Microscopy analysis was performed using a Zeiss Axio Observer Z1 microscope with AxioCam MRM and ApoTome 2 (Carl Zeiss, Germany) with different 40X 63X oil immersion objectives. The cells were also stained with MitoTracker® Red CMXRos (Thermo Fisher), following the manufacturer's instructions, with the aim of carrying out comparative studies with the new fluorescent markers synthesized herein. Initially, both compounds 3 and 4 were used at a concentration of 50 nM, and staining time was also 30 minutes.
In order to confirm the specificity of the mitochondrial labeling, co-localization studies were carried out by co-staining with the commercial mitochondrial marker MitoTracker® Red in the cell line. Compound 4 was used at a concentration of 50 nM and MitoTracker® Red at 25 nM. Both compounds were added simultaneously and incubated for 30 minutes.

[8] = tested on: SCC38 cells; assay: Labeling in the presence of FCCP (depolarized mitochondrial membrane), flow cytometry; assay type: cell-based, human; settings: 60 µM FCCP for 3 h at 37 °C before staining; 20 nM of 4 or 0.5 nM of MitoTracker
Procedure: • Fig. 1. In vivo labeling of SCC38 cells with compound 4 at different concentrations (50, 100 and 500 nM). Scale bar: 10 µm • Fig. 2. Flow cytometry studies in SCC38 and HeLa cell lines labeled with compound 4 and Mito Tracker® Red. Histograms wherein fluorescence intensity vs number of events is represented for each of the staining times (5, 15 and 30 min) and control (Ctrl), for the SCC38 and HeLa cells and for each of the two markers. • Fig. 3. Absorption (A) and fluorescence (B) spectra, normalized to molar absorption and fluorescence quantum yield of probe 4 in different solvents; chloroform (green), acetone (black), acetonitrile (red), ethanol (blue) and water (gray). • Fig. 4. […] (A) Flow cytometry analysis of SCC38 cells incubated in the presence (+FCCP) or absence (-FCCP) of FCCP 60 µM for 3 h before staining with 20 nM of 4 or 0.5 nm of MitoTracker. The data represent the mean fluorescence intensity (MFI) of the stained cells. (B) Microscopy analysis of SCC38 cells pretreated or not with FCCP before co-staining with 20 nM of 4 and 0.5 nm of MitoTracker. The graphs show the fluorescence profiles of the regions of interest indicated with white lines in the right-hand panels. Scale bars: 10 µm). • Fig. 5. […] The data represent the mean fluorescence intensity (MFI) of the stained cells (upper panels) and representative images of the cytometry profiles (lower panels). • Fig. 7. […] (B) The data represent the mean fluorescence intensity (MFI) of the labeled cells.
The labeling was analyzed by flow cytometry in the presence of carbonyl cyanide-p-(trifluoromethoxy)phenylhydrazone (FCCP), a protonophore used to reduce the mitochondrial membrane potential (ΔΨm) through depolarization of the mitochondrial membrane. […] Indeed, the suppression of dye-mitochondria electrostatic attraction as a passive labeling mechanism reduces the concentration of the dye in the cell organelle and, thus, the probability and extent of the fluorescence deactivation processes, with the ensuing increase in their efficiency. […]

Structure (SMILES): CC1=CC(C)=[N+]2C1=C(c1c(C)cc(C)cc1C)c1c(C)cc(C)n1[B-]21OC(=O)C[C@@H](C[N+](C)(C)C)O1 (stereo partly drawn) [(S)-4]
fluorescence intensity compared with 4 [1]: considerably lower

half-life at 15000 µM [2]: 10 min | kfl: Radiative decay constant ([3]; Water): 0.66 10^8s^- 1 | knr: Non-Radiative decay constant ([3]; Water): 1.00 10^8s^- 1 | Δv: Stokes shift ([3]; Water): 542 cm⁻¹ | εmax: Molar extinction coefficient at the absorption peak ([3]; Water): 4.1 × 10^4 (M^-1 cm^- 1) | λab: Absorption peak wavelength ([3]; Water): 501 nm | τ: Fluorescence lifetime ([3]; Water): 6.00 ns | λfl: Fluorescence peak wavelength ([3]; Water, excitation at 490 nm): 515 nm | φf: Quantum yield ([3]; Water, reference PM567 in ethanol): 0.40
Structure (SMILES): Cc1cc(C)c(C2=C3C=CC=[N+]3[B-]3(OC(=O)C[C@H](C[N+](C)(C)C)O3)n3cccc32)c(C)c1 (stereo partly shown) [Compound 3]
tendency towards H- or J- type aggregation ([3]; concentrations as high as 10^-4 M): not exhibit any tendency towards H- or J- type aggregation

Structure (SMILES): ClCc1ccc(C2=c3cc4c5c(c3Oc3c2cc2c6c3CCCN6CCC2)CCC[N+]=5CCC4)cc1 [MitoTracker® Red, reference compound]
change of staining intensity with incubation time [4]: barely varied upon increasing incubation time | change of staining intensity with incubation time [5]: barely varied upon increasing incubation time | effect of (R)-palmitoylcarnitine on fluorescence intensity [6]: only a slight increase of fluorescence | location of the stain in the mitochondria [7]: concentrated along the edges of the mitochondria | mitochondrial fluorescence of cells treated with FCCP [8]: highly attenuated mitochondrial fluorescence

— patent EP3650451A1, “COMPOUNDS AND THEIR USES AS FLUORESCENT PROBES” (Consejo Superior de Investigaciones Cientificas, priority 2017, dated 2019)
